Experimental data from patent US20240368170A1, “CINNOLINE COMPOUNDS AND USES THEREOF” (Genentech, Inc., priority 2018, published 2024).

These compounds were tested against HPK1 (Homo sapiens, UniProt Q92918) (assay: HPK1 Lantha Binding Assay ("Lanth")). Details: L = Lanth.
Method: Example B2: HPK1 Lantha Binding Assay (“Lanth”)
For the reference compound, the top concentration was 1 mM. To the plate was added 10 μL 2 mM staurosporine in wells J1-P1 and A24-H24. A 11 point 5-fold compound serial dilution was performed using the Bravo liquid handling platform. […] The compound plate was centrifuged at 2500 rpm for 1 min. From the compound plate was transferred 80n1 of the compounds into an assay plate using the Echo liquid handler system. One compound plate makes two assay plates. Each assay plate is sealed and stored in an N2 cabinet.
The following assay concentrations and times were used: 2 nM HPK1, 2 nM Eu-Anti-GST Ab, and 15 nM Tracer222, with 60 min incubation time.
For the binding assay, 4 μL 2×HPK1 and Eu-anti-GST antibody were added to each well of the assay plate using a Multidrop reagent dispenser. The solutions were incubated in a 23 C incubator for 1 h. To each well of the assay plate was added 4 μL 2× Tracer-222 using a Multidrop reagent dispenser. The solutions were again incubated in a 23° C. incubator for 1 h. The results of the assay were read using an Envision plate reader with the following parameters: TR_FRET, 340ex/615 and 665em; […].
Compound Ki was analyzed using Morrison ki fit model in XL-fit
[formula] [formula] • b. Parameters: • E=enzyme concentration • S=Tracer222 concentration, Kd=Tracer222 Kd
All measurements are reported using the same units (nM).
Exemplary compounds were tested in the binding assays.

For N#Cc1ccncc1-c1cc(N)c2nnc(NC(=O)[C@@H]3C[C@@H]3F)cc2c1 (racemic) [Compound 4, (+/−)-cis-N-(8-Amino-6-(4-cyanopyridin-3-yl)cinnolin-3-yl)-2-fluorocyclopropanecarboxamide], which Ki is on record?
The Ki was 600 nM.

Nc1cc(C2CC2)cc2cc(NC(=O)[C@@H]3C[C@@H]3F)nnc12 (racemic) [Compound 7, cis-N-(8-Amino-6-cyclopropylcinnolin-3-yl)-2-fluorocyclopropane carboxamide] was tested. Which Ki did it give?
Its Ki is 600 nM.

Cc1cnsc1-c1cc(N)c2nnc(NC(=O)[C@@H]3C[C@@H]3F)cc2c1 (racemic) [Compound 15, (+/−)-cis-N-[8-Amino-6-(4-methylisothiazol-5-yl)cinnolin-3-yl]-2-fluoro-cyclopropanecarboxamide] was tested. Which Ki did it give?
The Ki was 3 nM.

How did the Ki turn out when Cn1cc(-c2cc(N)c3nnc(NC(=O)[C@@H]4C[C@H]4C#N)cc3c2)cn1 (racemic) [Compound 19, (+/−)-trans-N-(8-Amino-6-(1-methyl-1H-pyrazol-4-yl)cinnolin-3-yl)-2-cyanocyclopropanecarboxamide] was run?
Its Ki is 14 nM.

With CCc1ccncc1-c1cc(N)c2nnc(NC(=O)[C@@H]3C[C@H]3C#N)cc2c1 (racemic) [Compound 20, (+/−)-trans-N-(8-Amino-6-(4-ethylpyridin-3-yl)cinnolin-3-yl)-2-cyanocyclopropanecarboxamide] as the compound, how does the Ki read?
Its Ki is 13 nM.

For CCc1ccncc1-c1cc(N)c2nnc(NC(=O)[C@@H]3C[C@@H]3F)cc2c1 (racemic) [Compound 21, (+/−)-cis-N-(8-Amino-6-(4-ethylpyridin-3-yl)cinnolin-3-yl)-2-fluorocyclopropanecarboxamide], which Ki is on record?
Its Ki is 4 nM.

How did the Ki turn out when Nc1cc(-c2cnccc2C2CC2)cc2cc(NC(=O)[C@@H]3C[C@@H]3F)nnc12 (racemic) [Compound 22, (+/−)-cis-N-(8-Amino-6-(4-cyclopropylpyridin-3-yl)cinnolin-3-yl)-2-fluorocyclopropanecarboxamide] was run?
Its Ki is 31 nM.

Cc1c(N)cncc1-c1cc(N)c2nnc(NC(=O)[C@@H]3C[C@H]3C#N)cc2c1 (single isomer, unassigned) [Compound 23a] was tested. Which Ki did it give?
Its Ki is 0.7 nM.

For Cc1c(N)cncc1-c1cc(N)c2nnc(NC(=O)[C@H]3C[C@@H]3C#N)cc2c1 (single isomer, unassigned) [Compound 23b], which Ki is on record?
Its Ki is 4 nM.

How did the Ki turn out when COc1ccncc1-c1cc(N)c2nnc(NC(=O)[C@@H]3C[C@@H]3F)cc2c1 [Compound 2a, (1S,2S)—N-(8-Amino-6-(4-methoxypyridin-3-yl)cinnolin-3-yl)-2-fluorocyclopropanecarboxamide] was run?
Its Ki is 58 nM.

With Cc1cc(N)ncc1-c1cc(N)c2nnc(NC(=O)[C@@H]3C[C@@H]3F)cc2c1 [Compound 5a, (1S,2S)—N-(8-Amino-6-(6-amino-4-methylpyridin-3-yl)cinnolin-3-yl)-2-fluorocyclopropanecarboxamide] as the compound, how does the Ki read?
Its Ki is 15 nM.

For CCc1cc(N)c2nnc(NC(=O)[C@@H]3C[C@@H]3F)cc2c1 [Compound 6a, (1S,2S)-N-(8-Amino-6-ethylcinnolin-3-yl)-2-fluorocyclopropanecarboxamide], which Ki is on record?
The Ki was 440 nM.

How did the Ki turn out when CC(C)OC(=O)Nc1cc2cc(-c3cnn(C)c3)cc(N)c2nn1 [Compound 9, Isopropyl N-[8-amino-6-(1-methylpyrazol-4-yl)cinnolin-3-yl]carbamate] was run?
The Ki was 28 nM.

For Cn1cc(-c2cc(N)c3nnc(NC(=O)N4CCCC4)cc3c2)cn1 [Compound 10, N-[8-Amino-6-(1-methylpyrazol-4-yl)cinnolin-3-yl]pyrrolidine-1-carboxamide], which Ki is on record?
Its Ki is 65 nM.

CCc1ccncc1-c1cc(N)c2nnc(NC(=O)NC(C)C)cc2c1 [Compound 11, 1-[8-Amino-6-(4-ethyl-3-pyridyl)cinnolin-3-yl]-3-isopropyl-urea] was tested. Which Ki did it give?
The Ki was 8 nM.

How did the Ki turn out when Cc1cnccc1-c1cc(N)c2nnc(NC(=O)[C@@H]3C[C@@H]3F)cc2c1 [Compound 17a, (1S,2S)—N-(8-Amino-6-(3-methylpyridin-4-yl)cinnolin-3-yl)-2-fluorocyclopropanecarboxamide] was run?
The Ki was 53 nM.

Which Ki does the source give for Cn1cc(-c2cc(N)c3nnc(NC(=O)[C@@H]4C[C@@H]4F)cc3c2)cn1 [Compound 18a, (1S,2S)—N-(8-Amino-6-(1-methyl-1H-pyrazol-4-yl)cinnolin-3-yl)-2-fluorocyclopropanecarboxamide] here?
Its Ki is 15 nM.

Cc1ccncc1-c1cc(C)c2nnc(NC(=O)C3CC3)cc2c1 [Compound 24, N-(8-Methyl-6-(4-methylpyridin-3-yl)cinnolin-3-yl)cyclopropanecarboxamide] was tested. Which Ki did it give?
Its Ki is 260 nM.

With Cc1ccncc1-c1cc(N)c2nnc(NC(=O)C3CC3)cc2c1 [Compound 25, N-(8-Amino-6-(4-methylpyridin-3-yl)cinnolin-3-yl)cyclopropanecarboxamide] as the compound, how does the Ki read?
The Ki was 1.9 nM.

Cc1ccncc1-c1cc(Cl)c2nnc(NC(=O)C3CC3)cc2c1 [Compound 26, N-(8-Chloro-6-(4-methylpyridin-3-yl)cinnolin-3-yl)cyclopropanecarboxamide] was tested. Which Ki did it give?
Its Ki is greater than 1000 nM.

With Cc1ccncc1-c1ccc2nnc(NC(=O)C3CC3)cc2c1 [Compound 27, N-(6-(4-Methylpyridin-3-yl)cinnolin-3-yl)cyclopropanecarboxamide] as the compound, how does the Ki read?
The Ki was 510 nM.

These compounds were tested against HPK full length, T165E S171E (Homo sapiens (Human), UniProt Q92918, S171E/T165E) (assay: HPK1-FL HTRF Enzymatic Assay ("HTRF")). Details: H = HTRF; ATP 1 mM.
Type: biochemical
Method: Example BI: HPK1-FL HTRF Enzymatic Assay (“HTRF”)
HPK-FL enzyme phosphorylates Biotin-SLP-76 substrate in the presence of ATP at 1 mM and varying concentrations of test compound. Product is detected by FRET using Eu-anti-pSLP76 Ab and SA-XL665. Also see www.cisbio.com/HTRF for additional HTRF technology information.
• Assay plate: White ProxiPlate 384 F (PerkinElmer cat #6008289) • Kinase: HPK full length double mutant • Substrate: Biotin-SLP76 • ATP: 100 mM ATP • BSG: 2% BSG • DMSO: DMSO (Sigma cat #34869-100ML) • Reaction Buffer: H2O/50 mM HEPES, pH 7.5/10 mM MgCl2/2 mM TCEP/0.01% Brij-35/0.01% BSG • Detection mix: Eu-anti-pSLP76/SA-XL665 (Cisbio, #610SAXAC)
To a 384 well Proxiplate with 80 nL compound or DMSO spotted on was added 4 μl/well kinase mix. The mixture was preincubated for 30 minutes and then 4 μl/well substrate mix was added. The solution was incubated for 60 min and then 4 μl/well detection mix was added. The solution was incubated for another 60 min. The plates were then loaded onto a Perkin Elmer Envision and the TR-FRET signal was measured at 615 and 665 nm. A ratio of […] was used to calculate the % activity at each concentration of compound.

Chain of HPK full length, T165E S171E (Q92918 whole entry T165E/S171E): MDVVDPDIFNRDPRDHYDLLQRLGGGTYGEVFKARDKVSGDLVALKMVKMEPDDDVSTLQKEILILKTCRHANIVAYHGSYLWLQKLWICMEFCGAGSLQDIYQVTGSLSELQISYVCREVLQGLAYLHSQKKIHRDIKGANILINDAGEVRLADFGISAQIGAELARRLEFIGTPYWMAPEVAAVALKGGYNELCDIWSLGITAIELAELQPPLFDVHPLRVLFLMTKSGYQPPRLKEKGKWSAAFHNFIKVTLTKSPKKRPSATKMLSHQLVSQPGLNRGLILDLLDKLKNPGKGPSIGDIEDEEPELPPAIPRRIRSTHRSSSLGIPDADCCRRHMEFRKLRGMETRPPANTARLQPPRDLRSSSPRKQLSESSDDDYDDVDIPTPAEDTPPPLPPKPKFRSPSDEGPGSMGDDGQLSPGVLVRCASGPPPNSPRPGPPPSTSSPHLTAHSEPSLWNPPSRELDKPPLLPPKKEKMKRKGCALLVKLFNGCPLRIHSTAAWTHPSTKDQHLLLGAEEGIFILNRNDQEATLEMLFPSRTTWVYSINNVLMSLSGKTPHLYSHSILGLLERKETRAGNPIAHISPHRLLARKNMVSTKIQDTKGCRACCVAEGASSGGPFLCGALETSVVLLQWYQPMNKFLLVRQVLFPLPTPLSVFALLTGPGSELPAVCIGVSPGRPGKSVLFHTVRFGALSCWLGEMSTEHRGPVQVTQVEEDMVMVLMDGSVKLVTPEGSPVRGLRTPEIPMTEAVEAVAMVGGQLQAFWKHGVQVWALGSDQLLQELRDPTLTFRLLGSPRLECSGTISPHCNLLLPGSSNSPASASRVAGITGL

Which Ki does the source give for Cc1c(N)cncc1-c1ccc2nnc(Nc3cc4n(n3)CC(=O)N(C(C)C)CC4)cc2c1 [Compound 28, 2-((6-(5-Amino-4-methylpyridin-3-yl)cinnolin-3-yl)amino)-6-isopropyl-5,6-dihydro-4H-pyrazolo[1,5-d][1,4]diazepin-7(8H)-one] here?
The Ki was 40 nM.

Which Ki does the source give for Cc1c(N)cncc1-c1cc(N)c2nnc(Nc3cc4n(n3)CC(=O)N(C(C)C)CC4)cc2c1 [Compound 29, 2-((8-Amino-6-(5-amino-4-methylpyridin-3-yl)cinnolin-3-yl)amino)-6-isopropyl-5,6-dihydro-4H-pyrazolo[1,5-d][1,4]diazepin-7(8H)-one] here?
Its Ki is 0.098 nM.

The compounds below were run on primary human pan T cells (assay: Human T-cell IL2 Induction Assay). Details: assayed concentration 2.78 μM; anti-CD3/anti-CD28 stimulation.
Type: cell-based
Method: Example B3: Human T-cell IL2 Induction Assay
Assay Principle: Anti-CD3 and anti-CD28 activates TCR signaling in primary human pan T cells leading to IL-2 promoter induction. Secreted IL-2 in cell culture supernatant is detected by electrochemiluminescence using a capture antibody against IL-2 and an anti-IL-2 antibody labeled with SULFO-tag. Also see www.mesoscale.com for additional electrochemiluminescence technology information.
Assay Procedure: Incubate primary human pan T cells with varying concentrations of test compounds for 30 minutes in a humidified incubator at 37° C. and 5% CO2. Transfer cells to a plate pre-coated with a fixed concentration of anti-human CD3 (determined separately for each donor lot) and add soluble anti-human CD28 (final concentration=1 μg/ml). Stimulate cells in a humidified incubator at 37° C. and 5% CO2 for 4 hours. Transfer 25 μl of supernatant to a MSD single spot plate pre-coated with an anti-human IL-2 antibody. Incubate MSD plate overnight at 4° C. with gentle shaking. Wash MSD plate 4× with wash buffer. […] Wash MSD plate 4× with wash buffer and add 150 μl 2×MSD read buffer. Read on an MSD instrument. […]
Exemplary compounds of Formula (I) were tested in the human T-cell IL-2 induction assays. The % increase measured for IL-2 in cells treated by the test compounds relative to untreated cells are provided in Table B2 for certain compounds.

Cc1c(N)cncc1-c1cc(N)c2nnc(NC(=O)[C@@H]3C[C@H]3C#N)cc2c1 (single isomer, unassigned) [Compound 23a] was tested. Which “% IL-2 increase relative to untreated cells” value did it give?
The value was 538%.

Same assay, conditions: assayed concentration 8.33 μM; anti-CD3/anti-CD28 stimulation

For Cc1ccncc1-c1cc(N)c2nnc(NC(=O)C3CC3)cc2c1 [Compound 25, N-(8-Amino-6-(4-methylpyridin-3-yl)cinnolin-3-yl)cyclopropanecarboxamide], which “% IL-2 increase relative to untreated cells” value is on record?
The value was 192%.
